Experimental data taken from US12624004B2 (Fudan University, priority 2019, dated 2026).
Counter-ions that a name gives are not always drawn. Like-named read-outs stand apart in the source and are kept apart here.

Key:
μ opioid receptor = biological target: T1, μ opioid receptor (Homo sapiens, UniProt P35372); experiment: Competition binding assay on membranes of CHO cells expressing μ opioid receptor, [3H]-labeled ligand; details: for inhibition at 10 µM: Table 1-1, 10 μM concentration of compound, mean ± SD of three measurements, read-out: μOR Binding rate (%); for Ki: read-out: μOR Ki
T1 construct: expressed in transfected cells; host or cells: CHO cells (membranes)
Protocol: (§1) CHO cells expressing p opioid receptor, δ opioid receptor and κ opioid receptor were cultured in 10 cm^2 culture dishes (F-12 medium+10% neonatal bovine serum) for several days, and the culture fluid was aspirated after the cells had grown to the bottom of the dishes; 3 ml of PBS/EDTA solution (0.1M NaCl, 0.01M NaH2PO4, 0.04% EDTA) was added to digest the cells for 3-5 min. Add ice-cold homogenate (50 mM HEPES PH 7.4, 3 mM MgCl, 1 mM EGTA) to the centrifuge tube, transfer the solution and sediment to a homogenizer and homogenize; then transfer the homogenate to a centrifuge tube and centrifuge at 18000 rpm. Centrifuge for 15 min, two times; the obtained precipitate was homogenized with appropriate amount of 50 mM Tris-HCl, pH 7.4 buffer and divided into centrifuge tubes and stored at −70° C. in the refrigerator until use.
(§2) The total binding tube was spiked with 20-30 μg of the expressed membrane receptor protein and […] ligand (1-2 nM), the corresponding non-specific binding tube was spiked with 1 μM of the corresponding ligand, and the sample tubes were spiked with various screened opioid ligands in a final volume of […], incubated at 30° C. for 30 min, and the reaction was terminated in ice water. […] The samples were filtered under negative pressure through GF/C (whatman) glass fiber filter paper on a Millipore sample collector. The reaction was rinsed three times with 4 ml of 50 mMV Tris-HCl (pH 7.4), the filter paper was dried and placed in 0.5 ml Eppendorf tubes with 0.5 ml of lipophilic scintillation solution, the radioactivity was measured by PERKIN ELMER PRI-CARB 2910 liquid scintillation counter and the inhibition rate was calculated. Inhibition rate (or binding rate)=(total binding rate dpm−sample tube dpm)/(total binding tube dpm−non-specific binding tube dpm)×100%
(§3) IC50 was calculated using Prism 5.0 software. the Ki value was calculated as follows, Ki=IC50/(1+[IL]/Kd), [lL] is the concentration of the added labeled ligand and Kd is the equilibrium dissociation parameter of the labeled ligand.
(§4) CHO cells expressing p opioid receptor, δ opioid receptor and κ opioid receptor were cultured in a 10 cm^2 culture dish (F-12 medium+10% neonatal bovine serum) for several days, and the culture fluid was aspirated after the cells grew to the bottom of the dish. 3 mL PBS/EDTA solution (0.1 M NaCl, 0.01 M NaH2PO4, 0.04% EDTA) was added to digest the cells for 3˜5 min, blew with a pipette to completely dislodge the cells. The cells were collected in a 40 mL centrifuge tube, centrifuged at 5000 rpm for 5 min. The supernatant was removed and the ice-cold homogenate (50 mM HEPES pH 7.4, 3 mM MgCl2, 1 mM EGTA) was added to the centrifuge tube. The solution and the precipitate were transferred to a homogenizer. Then the homogenate was transferred to a centrifuge tube and centrifuged at 18000 rpm for 15 min. The precipitate was centrifuged twice at 18000 rpm for 15 min. The obtained precipitate was homogenized by adding appropriate amount of 50 mM Tris-HCl, pH 7.4 buffer and divided into centrifuge tubes and stored at −70° C. in the refrigerator until use.
(§5) The total binding tube was added with 20-30 μg of expressed membrane receptor protein and [3H]-labeled ligand (1-2 nM). The corresponding non-specific binding tube was added with 1 μM of the corresponding ligand, and the sample tubes were added with various screened opioid ligands in a final volume of 100 μL. All of them were incubated for 30 min at 30° C., and the reaction was terminated in ice water. The samples were filtered under negative pressure through GF/C (Whatman) glass fiber filter paper on a Millipore sample collector. The reaction was rinsed three times with 4 mL of 50 mM Tris-HCl (pH 7.4), the filter paper was dried and placed in 0.5 mL Eppendorf tubes with 0.5 mL of lipophilic scintillation solution. […]

δ opioid receptor = biological target: T2, δ opioid receptor (Homo sapiens, UniProt P41143); experiment: Competition binding assay on membranes of CHO cells expressing δ opioid receptor, [3H]-labeled ligand; details: for inhibition at 10 µM / inhibition at 1 µM: 0.5 h; for inhibition at 10 µM: Table 1-1, 10 μM concentration of compound; for inhibition at 1 µM: 1 μM concentration of compound; for Ki: read-out: δOR Ki
T2 construct: expressed in transfected cells; host or cells: CHO cells (membranes)
Protocol: as §1, §2, §3, §4, §5

κ opioid receptor = biological target: T3, κ opioid receptor (Homo sapiens, UniProt P41145); experiment: Competition binding assay on membranes of CHO cells expressing κ opioid receptor, [3H]-labeled ligand; details: for inhibition at 10 µM / inhibition at 1 µM: 0.5 h; for inhibition at 10 µM: 10 μM concentration of compound; for inhibition at 1 µM: 1 μM concentration of compound; for Ki: read-out: κOR Ki
T3 construct: expressed in transfected cells; host or cells: CHO cells (membranes)
Protocol: as §1, §2, §3, §4, §5

[1] = Table 1-1, read-out: κOR Binding rate (%)

SMILES: COc1cccc(C2(O)CCC(NS(=O)(=O)c3ccccc3)CC2CN(C)C)c1 (stereo not drawn) [N-(3-((Dimethylamino)methyl)-4-hydroxy-4-(3-methoxyphenyl)cyclohexyl) benzenesulfonamide hydrochloride]
- inhibition at 10 µM (μ opioid receptor): 75.8 ± 4.1%
- inhibition at 10 µM (δ opioid receptor; read-out: δOR Binding rate (%)): 38 ± 2.43%
- inhibition at 10 µM (κ opioid receptor; [1]): 25.8 ± 7.9%

SMILES: COc1cccc(C2(O)CCC(S(=O)(=O)Cc3ccccc3)CC2CN(C)C)c1 (stereo not drawn) [4-(Benzylsulfonyl)-2-((dimethylamino)methyl)-1-(3-methoxyphenyl) cyclohexane-1-ol hydrochloride]
- inhibition at 10 µM (μ opioid receptor): 98.6 ± 1.2%
- inhibition at 10 µM (δ opioid receptor; read-out: δOR Binding rate (%)): 44 ± 7.85%
- inhibition at 10 µM (κ opioid receptor; [1]): 47.7 ± 3.1%

SMILES: COc1cccc([C@]2(O)CCN(C(=O)Cc3cc(F)c(F)cc3F)C[C@H]2CN(C)C)c1
- Ki (μ opioid receptor; Table 4-1): 165 ± 22.3 nM
- inhibition at 1 µM (δ opioid receptor; Table 4-1, read-out: δOR Binding rate (%)): 26.6 ± 3.9%
- inhibition at 1 µM (κ opioid receptor; Table 4-1, read-out: κOR Binding rate (%)): 33 ± 4.1%

SMILES: CN(C)C[C@H]1CN(C(=O)Cc2cc(F)c(F)cc2F)CC[C@]1(O)c1cccc(O)c1
- Ki (μ opioid receptor; Table 4-1): 53.5 ± 0.09 nM
- Ki (δ opioid receptor; Table 4-1): 3560 ± 96.5 nM
- Ki (κ opioid receptor; Table 4-1): 42.3 ± 0.6 nM

SMILES: COc1cccc(C2(OC(=O)c3ccccc3)CCC(N(C)S(=O)(=O)Cc3ccccc3)CC2CN(C)C)c1 (stereo not drawn)
- inhibition at 10 µM (μ opioid receptor): 81.2 ± 4.2%
- inhibition at 10 µM (δ opioid receptor; read-out: δOR Binding rate (%)): 30.1 ± 14.9%
- inhibition at 10 µM (κ opioid receptor; [1]): 35.7 ± 3%

SMILES: COc1cccc(C2(O)CCC(N(Cc3ccccc3)S(=O)(=O)c3cccc(Cl)c3)CC2CN(C)C)c1 (stereo not drawn)
- inhibition at 10 µM (μ opioid receptor): 85.8 ± 3.2%
- inhibition at 10 µM (δ opioid receptor; read-out: δOR Binding rate (%)): 5.1%
- Ki (κ opioid receptor; Table 1-1): 9.81 ± 0.32 nM

SMILES: CN(C)C[C@@H]1CN(C(=O)Cc2cc(F)c(F)cc2F)CC[C@@]1(O)c1cccc(O)c1
- Ki (μ opioid receptor; Table 4-1): 1.77 ± 0.18 nM
- Ki (δ opioid receptor; Table 4-1): 178 ± 17.9 nM
- Ki (κ opioid receptor; Table 4-1): 127 ± 1.6 nM

SMILES: CN(C)C[C@H]1CN(S(=O)(=O)Cc2ccccc2)CC[C@]1(O)c1cccc(O)c1 [(3S,4R)-1-(Benzylsulfonyl)-3-((dimethylamino)methyl)-4-(3-hydroxyphenyl)piperidin-4-ol hydrochloride]
- Ki (μ opioid receptor; Table 4-1): 38.3 ± 1.18 nM
- Ki (δ opioid receptor; Table 4-1): 1089 ± 9 nM
- Ki (κ opioid receptor; Table 4-1): 231 ± 13.1 nM

SMILES: COc1cccc([C@]2(O)CCN(S(=O)(=O)Cc3ccccc3)C[C@H]2CN(C)C)c1 [(3R,4S)-1-(Benzylsulfonyl)-3-((dimethylamino)methyl)-4-(3-methoxyphenyl)piperidin-4-ol hydrochloride salt]
- inhibition at 0.1 µM (μ opioid receptor; Table 4-1 footnote a, 0.1 μM, read-out: μOR Inhibition rate): 27.5 ± 1.54%
- inhibition at 0.1 µM (δ opioid receptor; Table 4-1 footnote a, 0.1 μM, read-out: δOR Inhibition rate): 10.5 ± 3.7%
- inhibition at 0.1 µM (κ opioid receptor; Table 4-1 footnote a, 0.1 μM, read-out: κOR Inhibition rate): 15.2 ± 1.56%

SMILES: COc1cccc(C2(O)CCN(C(=O)Cc3ccccc3Cl)CC2CN(C)C)c1 (stereo not drawn) [FWBE20, 2-(2-Chlorophenyl)-1-(3-((dimethylamino)methyl)-4-hydroxy-4-(3-methoxyphenyl)piperidin-1-yl)ethyl-1-one hydrochloride]
- inhibition at 1 µM (μ opioid receptor; 0.5 h, Table 5-1, 1 μM concentration of compound, read-out: μOR Combination rate (%)): 28.3 ± 7.2%
- inhibition at 1 µM (δ opioid receptor; Table 5-1, read-out: δOR Combination rate (%)): 0%
- inhibition at 1 µM (κ opioid receptor; Table 5-1, read-out: κOR Combination rate (%)): 34.8 ± 0.7%

SMILES: COc1cccc(C2(OC(=O)c3ccccc3)CCC(N(C)S(=O)(=O)Cc3cccc(Cl)c3)CC2CN(C)C)c1 (stereo not drawn)
- inhibition at 10 µM (μ opioid receptor): 89.8 ± 4.6%
- inhibition at 10 µM (δ opioid receptor; read-out: δOR Binding rate (%)): 4.8%
- inhibition at 10 µM (κ opioid receptor; [1]): 25.5 ± 6.1%

SMILES: COc1cccc(C2(OC(=O)c3ccccc3)CCC(NS(=O)(=O)c3ccccc3)CC2CN(C)C)c1 (stereo not drawn)
- inhibition at 10 µM (μ opioid receptor): 80.9 ± 4.4%
- inhibition at 10 µM (δ opioid receptor; read-out: δOR Binding rate (%)): 17.4 ± 2.5%
- inhibition at 10 µM (κ opioid receptor; [1]): 51.5 ± 6.6%

SMILES: COc1cccc(C2(O)CCC(N(Cc3ccccc3)S(=O)(=O)c3ccccc3)CC2CN(C)C)c1 (stereo not drawn)
- inhibition at 10 µM (μ opioid receptor): 70.5 ± 2.3%
- inhibition at 10 µM (δ opioid receptor; read-out: δOR Binding rate (%)): 9.53%
- inhibition at 10 µM (κ opioid receptor; [1]): 84.7 ± 2.1%

SMILES: COc1cccc(C2(OC(=O)c3ccccc3)CCC(NS(=O)(=O)c3cccc(Cl)c3)CC2CN(C)C)c1 (stereo not drawn)
- inhibition at 10 µM (μ opioid receptor): 70.4 ± 3%
- inhibition at 10 µM (δ opioid receptor; read-out: δOR Binding rate (%)): 18.8 ± 8.6%
- inhibition at 10 µM (κ opioid receptor; [1]): 39 ± 5.5%

SMILES: CN(C)C[C@@H]1CN(S(=O)(=O)Cc2ccccc2)CC[C@@]1(O)c1cccc(O)c1 [(3R,4S)-1-(Benzylsulfonyl)-3-((dimethylamino)methyl)-4-(3-hydroxyphenyl)piperidin-4-ol hydrochloride]
- Ki (μ opioid receptor; Table 4-1): 0.17 ± 0.01 nM
- Ki (δ opioid receptor; Table 4-1): 1100 ± 42 nM
- Ki (κ opioid receptor; Table 4-1): 33.7 ± 3.26 nM

SMILES: COc1cccc(C2(O)CCC(NS(=O)(=O)c3cccc(Cl)c3)CC2CN(C)C)c1 (stereo not drawn)
- inhibition at 10 µM (μ opioid receptor): 79.7 ± 4.6%
- inhibition at 10 µM (δ opioid receptor; read-out: δOR Binding rate (%)): 14.5 ± 5.8%
- inhibition at 10 µM (κ opioid receptor; [1]): 35.9 ± 5.7%

SMILES: COc1cccc(C2(OC(F)F)CCN(S(=O)(=O)Cc3ccccc3)CC2CN(C)C)c1.Cl (stereo not drawn) [hydrochloride]
- inhibition at 0.1 µM (μ opioid receptor; Table 2-1 footnote a, at 0.1 μM, read-out: μOR Inhibition rate or binding rate): 22.6 ± 9.8%
- inhibition at 0.1 µM (δ opioid receptor; Table 2-1 footnote a, at 0.1 μM, read-out: δOR Inhibition rate or binding rate): 0%
- inhibition at 0.1 µM (κ opioid receptor; Table 2-1 footnote a, at 0.1 μM, read-out: κOR Inhibition rate or binding rate): 15.5 ± 4.1%

SMILES: CN(C)CC1CN(S(=O)(=O)Cc2ccccc2)CCC1(O)c1cccc(OC(F)(F)F)c1.Cl (stereo not drawn) [hydrochloride]
- Ki (μ opioid receptor; Table 2-1): 64.5 ± 1.76 nM
- inhibition at 1 µM (δ opioid receptor; Table 2-1, read-out: δOR Binding rate (%)): 40.8 ± 2.23%
- inhibition at 1 µM (κ opioid receptor; Table 2-1, read-out: κOR Binding rate (%)): 21.4 ± 0.36%
